Reference: US10876115B2, “Method for assaying MicroRNA, cancer therapeutic agent, and medical composition containing same for cancer therapy” (National University Corporation Tokyo Medical and Dental …, priority 2013, dated 2020)

system: transcriptional activity of NRF2 (ARE activity); test: miRNA library screening using ARE-luciferase reporter system; type: cell-based, human; conditions: HeLa cells, 20 nmol/L miRNA, 48 hours after transfection, luciferase activity per living cell
Experimental: The luciferase reporter plasmid was prepared by inserting a human NQO-1 promoter region 5′-[…]-3′ (SEQ ID NO: 19) including an antioxidant response element (ARE) into an Mlu1/Xho1 site in pGL3 vector (Promega). Specifically, a pair of synthetic oligonucleotides complementary with each other shown in Table 2 (upper; SEQ ID NO: 20, lower; SEQ ID NO: 21) were annealed, to thereby form a double-stranded DNA, and a double-stranded DNA having cohesive ends complementary to the Mlu1/Xho1 site was prepared by use of Mlu1 and Xho1. The thus-produced double-stranded DNA fragment was inserted into the Mlu1/Xho1 site, to thereby yield a recombinant pGL3 (reporter plasmid) of interest.
Firstly, the reporter plasmid was transiently transfected into HeLa cells (1×10^7 cells/dish) in a 10 cm dish. 24 hours after transfection, the cells (1×10^4 cells/well) were seeded on a 96-well plate, and the next day, 20 nmol/L of each of the 470 double-stranded RNA fragments, derived from Pre-miRNA precursor library-Human V3 (Ambion) or control miRNA was transfected. After two days, firefly luciferase activity was measured by means of a microplate reader (ARVOmx; Perkinelmer) using Bright-Glo Luciferase Assay System (Promega). At the same time, living cells were detected through CV staining assay. ARE activity was calculated from the luciferase activity per living cell.
For the screening of 470 double-stranded RNAs, HeLa cells were sequentially transfected with each miRNA together with the reporter plasmid, and then the ARE activity in each transfected cell was calculated as the luciferase activity per living cell, as measured by the crystal violet (CV) staining assay. Briefly, the ARE-luciferase reporter plasmid and each miRNA from the library were sequentially transfected into HeLa cells, and after 48 hours, luciferase activity or the number of living cells was measured using the Bright-GIo Luciferase Assay System or crystal violet (CV) staining assay, respectively. The ARE activity for each miRNA-transfected cell was calculated as the luciferase activity per living cell.
The ARE activity relative to that in control-miRNA-transfected cells is indicated on the vertical axis. Eight miRNAs with a relative ratio of 0.5 or less were identified as candidates by this screening system. Also, eight miRNAs with a relative ratio of 1.5 or more were similarly identified as candidates by this screening system.

ARE activity relative to that in control-miRNA-transfected cells (relative ratio), large decrease:
hsa-miR-556: low-value miRNA from Pre-miRNA precursor library; mature sequence GAUGAGCUCAUUGUAAUAUGAG, SEQ ID NO: 8 (listed as RNA, chemistry not given here; listed as Homo sapiens)
hsa-miR-337: low-value miRNA from Pre-miRNA precursor library; mature sequence GAACGGCUUCAUACAGGAGUU, SEQ ID NO: 6 (listed as RNA, chemistry not given here; listed as Homo sapiens)
hsa-miR-153: low-value miRNA from Pre-miRNA precursor library; mature sequence UUGCAUAGUCACAAAAGUGAUC, SEQ ID NO: 7 (listed as RNA, chemistry not given here; listed as Homo sapiens)
hsa-miR-639: low-value miRNA from Pre-miRNA precursor library; mature sequence AUCGCUGCGGUUGCGAGCGCUGU, SEQ ID NO: 5 (listed as RNA, chemistry not given here; listed as Homo sapiens)
